The text below walks through data of BindingDB's records for doi:10.1074/jbc.M111.266981 (AstraZeneca, 2011).

The test deals with T1, Myeloperoxidase (Homo sapiens, UniProt P05164).
T1 sequence (P05164 whole entry): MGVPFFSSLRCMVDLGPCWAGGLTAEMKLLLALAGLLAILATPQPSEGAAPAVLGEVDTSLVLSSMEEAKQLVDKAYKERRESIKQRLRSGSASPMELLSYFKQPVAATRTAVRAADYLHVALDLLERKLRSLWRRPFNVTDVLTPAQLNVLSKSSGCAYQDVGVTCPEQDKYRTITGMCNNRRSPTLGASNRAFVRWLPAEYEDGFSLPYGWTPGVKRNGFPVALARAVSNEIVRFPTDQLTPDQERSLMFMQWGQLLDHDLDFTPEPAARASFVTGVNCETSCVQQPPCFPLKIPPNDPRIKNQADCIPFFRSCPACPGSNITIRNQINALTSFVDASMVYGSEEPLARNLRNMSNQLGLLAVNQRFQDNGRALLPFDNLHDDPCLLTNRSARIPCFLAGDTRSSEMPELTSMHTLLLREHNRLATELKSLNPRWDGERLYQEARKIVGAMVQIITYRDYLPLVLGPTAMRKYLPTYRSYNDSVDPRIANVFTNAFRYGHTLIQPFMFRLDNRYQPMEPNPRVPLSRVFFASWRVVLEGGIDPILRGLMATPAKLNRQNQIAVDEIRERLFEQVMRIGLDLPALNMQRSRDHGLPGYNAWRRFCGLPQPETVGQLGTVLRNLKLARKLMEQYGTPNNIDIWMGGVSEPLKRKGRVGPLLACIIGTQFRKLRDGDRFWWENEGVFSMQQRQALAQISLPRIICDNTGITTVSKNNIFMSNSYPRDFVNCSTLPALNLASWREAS
Description: Activity Assay. As to conditions: pH 7.4; 21 °C. How it is done:
The chlorination activity of MPO was determined by measuring the production of hypocholorous acid.

For orientation: IC50 means the midpoint of a concentration-inhibition curve. In turn, `CC(C)Cn1c(=S)[nH]c(=O)c2[nH]cnc21` [2-Thioxanthine, TX1] registered an IC50 of 1 µM.
`O=c1[nH]c(=S)n(CC2CCCO2)c2nc[nH]c12` (centres undefined) [2-Thioxanthine, TX3] had an IC50 of 0.4 µM.
Compound `O=c1[nH]c(=S)n(C[C@H]2CCCO2)c2nc[nH]c12` [2-Thioxanthine, TX4] registered an IC50 of 0.2 µM.
`COCCn1c(=S)[nH]c(=O)c2[nH]cnc21` [2-Thioxanthine, TX5] returned an IC50 of 0.4 µM.
